From patent US20190185544A1, “COMPOSITIONS AND METHODS OF MODULATING ABETA PROTEIN” (University of South Florida, priority 2016, published 2019)
Entries after “also recorded” stand apart in the source; their conditions may differ. Residues, ends and D or L forms follow the SMILES beside them.

What was measured:
CHO/APPwt cells [1] = experiment: Aβ production in CHO/APPwt cells, treatment alone (Aβ1-40, 42 ELISA, 82E1 WB); type: cell-based, Chinese hamster; conditions: for Aβ production (Aβ1-40, 42): serum-free medium, 2 h (ELISA) or 16 h (WB)
Protocol: Chinese hamster ovary (CHO) cells overexpressing human wild-type amyloid precursor protein (APPwt) (CHO/APPwt cells) were cultured in 96-well plate at about 2×10^4/well in Dulbecco's modified Eagle's medium (DMEM) with 10% fetal bovine serum (FBS), 1 mM sodium pyruvate and 100 U/mL of penicillin/streptomycin for 18 hours.
CHO/APPwt cells were cultured in 96-well plate (about 2×10^4/well) in serum-free medium and treated with ApoE LDLR, FlagApoE LDLR (SEQ ID NO.: 1 with an N-terminal FLAG tag), BiotinApo LDLR (SEQ ID NO.: 1 with an N-terminal Biotin) and 3 lysinesApoE LDLR (3KApoE LDLR (SEQ ID NO.: 2)) at indicated doses for about 2 hours.
The conditioned media and cell lysates were prepared, and subjected to Aβ ELISA and protein assay.
CHO cells overexpressing human wild-type APP (CHO/APPwt) cells were cultured in 96-well plate at 2×10^4/well in Dulbecco's modified Eagle's medium (DMEM) with 10% fetal bovine serum (FBS), 1 mM sodium pyruvate and 100 U/mL of penicillin/streptomycin for 18 hours. […] 82E1 WB analyses as shown below the Aβ ELISA result histograms. The Aβ ELISA results are representative of three independent experiments with each condition triplicated and presented as mean±SD.
(residues 133-152, SEQ ID NO: 1)] as indicated for 2 and 16 hours (h). The conditioned media and cell lysates were analyzed by Aβ1-40, 42 ELISA (FIG. 10A), 82E1 WB analysis (FIG. 10B) and protein assay, respectively. In addition, (FIG. 10C) CHO/APPwt cells were cultured in 96-well plate (2×10^4/well) in serum-free DMEM and treated with FlagApoE-LBDP, BiotinApoE-LBDP and 3 lysineApoE-LBDP (3KApoE-LBDP) in comparing to ApoE-LBDP at indicated doses for 2 hours (h). […] (SEQ ID NO: 2); […]-[…] (SEQ ID NO: 10); Biotin-[…] (SEQ ID NO: 1 with an N-Terminal Biotin).
CHO cells engineered to express human wild-type APP (CHO/APPwt) or Swedish mutant APP (CHO/APPswe) were obtained. These cells were cultured in 96 or 24 well plates at 4×10^4 or 2×10^5 cells/well, respectively, in Dulbecco's modified Eagle's medium (DMEM) with 10% fetal bovine serum, 1 mM sodium pyruvate and 100 U/mL of penicillin/streptomycin (Invitrogen, Thermo Fisher Scientific). In addition, murine N2a cells transfected with APPwt (N2a/APPwt were obtained), SH-SY5Y cells transfected with APPswe and wild-type SH-SY5Y cells (ATCC, Manassas, Va.) were cultured as previously described^42. Primary hN2TM human neurons (Neuromics, Edina, Minn.) were cultured in hN2TM human neuron culture media and primary HCN2 human neurons (ATCC) were cultured in DMEM with 4 mM L-glutamine adjusted to contain 1.5 g/L sodium bicarbonate, 4.5 g/L glucose, fetal bovine serum (10%).
(§1) Aβ1-40, 42 and sAPPα from cell and brain homogenates were detected by Aβ1-40, 42 and sAPPα ELISA kits (IBL-America), strictly following the manufacturer's instructions^43,44.
(§2) WB analyses were performed as previously described^43,44. Briefly, 10% bicine/tris gel containing 8 M urea was used for separation of Aβ1-40, 42 species from brain homogenates or CHO cell conditioned media or lysates, followed by transfer to 0.2 μm pore-size nitrocellulose membrane (Bio-Rad, Hercules, Calif.). The membrane was boiled in PBS for 3 to 5 min before blocking to enhance sensitivity and then incubated with 82E1. For all other proteins detected by WB, 10% tris-SDS gels were used. Densitometry analysis was performed as previously described using a FluorS Multiimager with Quantity One™ software 43.

CHO/APPwt cells [2] = experiment: Inhibition of apoE-/lipoprotein-induced Aβ production in CHO/APPwt cells (Aβ ELISA); type: cell-based, Chinese hamster
Protocol: CHO/APPwt cells were treated with apoE LDLR binding domain peptide (aa 133-152, ApoEp), FlagApoEp, BiotinApoEp, 3K (lysine) ApoEp, 3D (aspartate) ApoEp or scrambled peptide at 0 to 25 μM, followed after 2 h by analysis of Aβ levels in conditioned media by ELISA (Aβ ELISA, FIGS. 19A and 19C) and after 16 h by analysis of Aβ in cell lysates by Western blot using 82E1 antibody (Aβ WB, FIG. 19B). […] Pre-incubating with HDL has been previously reported to lipidate apoE. Hu astro med was obtained from human astrocytes (CCF-STTG1/ATCC® CRL-1718™) as described previously. […]
CHO cells were also transfected with pCMV6 APP695 or pCMV6 E1 depleted APP695, yielding cells expressing wild type APP695 (CHO/APPwt) or truncated APP695 lacking the N-terminal E1 region (CHO/APPdE1). […] Diagram indicates important domains identified in APP, including N-terminal E1 region (top panel), and APPwt and APPdE1 proteins in cell lysates and conditioned media derived from the transfected CHO cells as determined by WB using 6E10 (middle panels). […] Asterisk indicates P<0.05 compared with the corresponding absence of 22C11, 6H3B5 or 6KApoEp, or with corresponding CHO/APPwt cells, as determined by one-way ANOVA. […]
as §1

CHO/APPwt cells [3] = experiment: Total cell associated cholesterol in CHO/APPwt cells; type: cell-based, Chinese hamster; conditions: 6KApoEp 0, 5 and 10 μM overnight
Protocol: (§3) Total cell associated cholesterol levels are represented as mean±s.d. (μg/mg of total intracellular protein) from three independent experiments. In addition, total plasma cholesterol levels in 3×Tg-AD mice treated with ApoEp (n=6) and 5×FAD mice treated with 6KApoEp (n=10) or PBS (Ctrl, n=10), as described in FIGS. 25A-26G, and in associated wild-type mice (WT) were analyzed by flourometric cholesterol quantitation kit (FIG. 31B). LDLR (FIG. 31C, top panel) and ApoE (middle panel) expression levels in brain homogenates were also analyzed by WB. […] (*P<0.05) and P>0.0.5, non-significant compared to control treatment.
CHO/APPwt cells were cultured overnight in 6-well plates at 2×10^6 cells/well in serum free DMEM, followed by washing 3 times with ice-cold PBS, lysis by sonication in chloroform:isopropanol:IGEPAL CA-630 (7:11:0.1) and centrifugation. The organic phase was transferred to a new tube, air dried at 50° C. to remove chloroform and diluted 10-fold in cholesterol assay buffer for cholesterol determination by flourometric cholesterol quantitation kit according to manufacturer's instructions (MilliporeSigma).

[4] = Plasma cholesterol and brain LDLR and ApoE expression in treated 3×Tg-AD and 5×FAD mice; type: in vivo, mouse; conditions: 5×FAD mice treated with 6KApoEp
Protocol: as §3

[5] = target: T1, CHO/APPwt cell conditioned medium-derived sAPPα (cmsAPPα) (human, UniProt P05067 18-687, limits assumed); experiment: in vitro incubation 1 h at 37 °C, IP with 6H3B5, WB
T1 construct: domain: sAPPα

[6] = target: T2, human recombinant sAPPβ (rsAPPβ, without Aβ domain) (human, UniProt P05067 18-671, limits assumed); experiment: as above
T2 construct: domain: sAPPβ (without Aβ domain); Bought protein

[7] = target: T3, human recombinant sAPPα (rsAPPα) (human, UniProt P05067 18-687, limits assumed); experiment: as above
T3 construct: domain: sAPPα; also called human sAPPα protein

[8] = target: T4, total secreted APP (t-sAPP) in CHO/APPwt conditioned media (human, UniProt P05067 18-687, limits assumed); experiment: CHO/APPwt cells treated 2 h; IP of conditioned media with 6H3B5 or pN-APP and WB
T4 construct: domain: total secreted APP (t-sAPP); Mixture of secreted APP ectodomain forms
Protocol: as §2, with “described^{43,44}.” for “described^43,44.”, “43. Immunoprecipitation (IP) was performed by first incubating conditioned media or cell lysates with appropriate antibodies and Protein-A/G Mag Sepharose beads (GE Healthcare Life Sciences, Pittsburgh, Pa.) overnight with gentle rocking at 4° C., followed by three washes with binding buffer (50 mM tris, 150 mM NaCl, pH 7.5) and analysis by WB.” for “43.”

[9] = target: T5, human wild-type amyloid precursor protein (APPwt) expressed in CHO/APPwt cells (human, UniProt P05067 18-770); experiment: CHO/APPwt cells treated 2 h; IP of cell lysates with 6H3B5 or pN-APP and WB; immunofluorescence
T5 construct: whole, on cells; Full-length APP in cell lysates or on fixed CHO/APPwt cells; also called full-length APP; f-APP
Protocol: as §2, with “described^{43,44}.” for “described^43,44.”, “43. Immunoprecipitation (IP) was performed by first incubating conditioned media or cell lysates with appropriate antibodies and Protein-A/G Mag Sepharose beads (GE Healthcare Life Sciences, Pittsburgh, Pa.) overnight with gentle rocking at 4° C., followed by three washes with binding buffer (50 mM tris, 150 mM NaCl, pH 7.5) and analysis by WB.” for “43.”

[10] = target: T5, human wild-type amyloid precursor …; experiment: cell-based or functional assay

T5 sequence (P05067 18-770): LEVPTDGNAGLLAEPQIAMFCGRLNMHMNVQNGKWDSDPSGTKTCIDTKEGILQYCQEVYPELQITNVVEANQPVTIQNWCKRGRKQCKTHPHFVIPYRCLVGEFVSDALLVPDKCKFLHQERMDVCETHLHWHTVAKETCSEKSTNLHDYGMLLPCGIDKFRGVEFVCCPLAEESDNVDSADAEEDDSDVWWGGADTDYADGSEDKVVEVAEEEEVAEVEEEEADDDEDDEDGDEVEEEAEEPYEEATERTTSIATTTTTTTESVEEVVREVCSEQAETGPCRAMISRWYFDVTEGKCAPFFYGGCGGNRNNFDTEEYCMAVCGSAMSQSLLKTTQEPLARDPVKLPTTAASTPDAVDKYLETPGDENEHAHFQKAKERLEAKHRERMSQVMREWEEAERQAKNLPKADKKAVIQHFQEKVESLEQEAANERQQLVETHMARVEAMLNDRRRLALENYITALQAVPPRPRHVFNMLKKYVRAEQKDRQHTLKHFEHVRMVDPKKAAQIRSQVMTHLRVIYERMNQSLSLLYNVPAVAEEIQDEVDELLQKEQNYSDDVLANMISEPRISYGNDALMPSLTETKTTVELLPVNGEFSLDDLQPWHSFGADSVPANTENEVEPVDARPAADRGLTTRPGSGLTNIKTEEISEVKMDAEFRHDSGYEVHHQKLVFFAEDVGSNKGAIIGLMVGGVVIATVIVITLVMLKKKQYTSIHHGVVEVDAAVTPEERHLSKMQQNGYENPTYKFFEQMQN
T3 sequence (P05067 18-687 limits assumed): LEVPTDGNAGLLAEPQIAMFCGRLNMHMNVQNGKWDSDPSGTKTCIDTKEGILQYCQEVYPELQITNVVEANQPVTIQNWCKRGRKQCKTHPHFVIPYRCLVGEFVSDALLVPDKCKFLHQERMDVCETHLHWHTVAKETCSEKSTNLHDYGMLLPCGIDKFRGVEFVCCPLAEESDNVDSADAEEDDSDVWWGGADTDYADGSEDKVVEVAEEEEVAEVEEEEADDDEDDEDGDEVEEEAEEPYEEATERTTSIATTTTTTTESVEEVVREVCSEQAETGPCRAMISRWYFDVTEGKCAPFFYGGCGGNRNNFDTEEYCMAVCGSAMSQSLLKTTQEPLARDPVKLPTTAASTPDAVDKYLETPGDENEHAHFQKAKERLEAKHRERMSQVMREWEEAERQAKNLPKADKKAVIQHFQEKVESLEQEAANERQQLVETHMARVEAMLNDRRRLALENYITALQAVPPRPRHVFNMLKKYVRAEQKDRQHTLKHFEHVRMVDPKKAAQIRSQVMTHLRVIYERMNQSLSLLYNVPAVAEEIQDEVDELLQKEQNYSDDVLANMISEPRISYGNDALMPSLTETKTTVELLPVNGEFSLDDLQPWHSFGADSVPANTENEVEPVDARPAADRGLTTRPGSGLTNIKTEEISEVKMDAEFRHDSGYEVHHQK
T4 sequence (P05067 18-687 limits assumed): as above
T1 sequence (P05067 18-687 limits assumed): as above
T2 sequence (P05067 18-671 limits assumed): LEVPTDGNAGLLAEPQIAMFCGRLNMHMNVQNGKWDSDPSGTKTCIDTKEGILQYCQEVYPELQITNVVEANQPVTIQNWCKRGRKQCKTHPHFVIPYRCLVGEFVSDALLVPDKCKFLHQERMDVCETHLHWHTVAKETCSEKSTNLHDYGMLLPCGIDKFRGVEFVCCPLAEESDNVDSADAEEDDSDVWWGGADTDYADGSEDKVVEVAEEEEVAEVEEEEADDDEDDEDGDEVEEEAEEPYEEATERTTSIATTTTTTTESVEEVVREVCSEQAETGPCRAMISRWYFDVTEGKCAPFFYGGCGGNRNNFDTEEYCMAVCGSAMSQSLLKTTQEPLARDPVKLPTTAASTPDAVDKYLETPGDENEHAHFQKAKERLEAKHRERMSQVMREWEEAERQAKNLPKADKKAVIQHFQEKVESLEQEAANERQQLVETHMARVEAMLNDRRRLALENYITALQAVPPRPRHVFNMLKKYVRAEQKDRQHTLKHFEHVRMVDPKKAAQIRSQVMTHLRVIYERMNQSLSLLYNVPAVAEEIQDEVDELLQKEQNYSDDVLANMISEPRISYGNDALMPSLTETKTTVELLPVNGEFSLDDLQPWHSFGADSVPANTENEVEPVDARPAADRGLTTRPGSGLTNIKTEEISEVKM

ApoB100: apolipoprotein B, human plasma (Athens Research & Technology)
sAPPα secretion (CHO/APPwt cells [1]): decreased sAPPα secretion
Aβ production (Aβ1-40, 42) (CHO/APPwt cells [1]): increased Aβ1-40, 42 production; also recorded: markedly promote amyloid β protein (Aβ) production

KKKLRVRLASHLRKLRKRLLRDA (polypeptide configured to modulate binding of a protein the an ApoE receptor) [3KApoEp, ApoEp with 3 N-terminal lysines]
Aβ production (Aβ1-40, 42) (CHO/APPwt cells [1]): terminated this amyloidogenic effect
basal and apoE4-induced Aβ production (CHO/APPwt cells [2]; peptide 10 μM for 15 min, then with or without hu rec ApoE4 10 μg/mL for 2 hours): moderately
Aβ generation induced by human plasma ApoE3, human recombinant ApoE3 and ApoE4, human plasma LDL and ApoB100 (CHO/APPwt cells [2]; pre-treatment at about 10 μM, then inducer for about 2 hours): Markedly Inhibits Aβ Generation

CC(C)C[C@H](NC(=O)[C@H](CCCNC(=N)N)NC(=O)[C@@H](NC(=O)[C@H](CCCNC(=N)N)NC(=O)[C@H](CC(C)C)NC(=O)[C@H](CCCCN)NC(=O)[C@H](CCCCN)NC(=O)[C@H](CCCCN)NC(=O)[C@H](CCCCN)NC(=O)[C@H](CCCCN)NC(=O)[C@@H](N)CCCCN)C(C)C)C(=O)N[C@@H](C)C(=O)N[C@@H](CO)C(=O)N[C@@H](Cc1c[nH]cn1)C(=O)N[C@@H](CC(C)C)C(=O)N[C@@H](CCCNC(=N)N)C(=O)N[C@@H](CCCCN)C(=O)N[C@@H](CC(C)C)C(=O)N[C@@H](CCCNC(=N)N)C(=O)N[C@@H](CCCCN)C(=O)N[C@@H](CCCNC(=N)N)C(=O)N[C@@H](CC(C)C)C(=O)N[C@@H](CC(C)C)C(=O)N[C@@H](CCCNC(=N)N)C(=O)N[C@@H](CC(=O)O)C(=O)N[C@@H](C)C(=O)O [6KApoEp] (H-KKKKKKLRVRLASHLRKLRKRLLRDA-OH; N-terminus and C-terminus assumed)
cell-associated cholesterol levels (CHO/APPwt cells [3]): without altering cell-associated or plasma cholesterol levels
plasma cholesterol levels [4]: without altering cell-associated or plasma cholesterol levels

DYKDDDDK-LRVRLASHLRKLRKRLLRDA (DYKDDDDKLRVRLASHLRKLRKRLLRDA; N-terminal FLAG ApoE recombinant polypeptide) [FlagApoEp, ApoEp modified by N-terminal addition of Flag-Tag]
Aβ production (Aβ1-40, 42) (CHO/APPwt cells [1]): greatly enhanced the efficacy of ApoEp to increase Aβ1-40, 42 levels

B1: 6K (6 lysine peptide) (peptide)
peptide: KKKKKK
notes: Control peptide of six lysines; also called 6K lysine
binding result [5]: no binding (tested: 100 nM)
binding result [6]: no binding (tested: 100 nM)
binding result [7]: no binding (tested: 100 nM)
binding result [8]: no binding (tested: 10 µM)
binding result [9]: no binding (tested: 10 µM)

B2: 6KApoEp (ApoE LDLR binding domain peptide with 6 N-terminal lysines) (peptide)
peptide: KKKKKKLRVRLASHLRKLRKRLLRDA
apoE4-induced Aβ production in CHO/APPwt cells (Aβ ELISA and WB), IC50 [10]: 0.32 to 0.63 µM
